Test results as given in patent US11236047B2 (ASTEX THERAPEUTICS LIMITED, priority 2017, dated 2022).
Where two headings read alike, the source gives them in different places.

Legend:
[1] = test system: SJSA-1 cells (p53 wild-type, MDM2 amplified osteosarcoma); assay: Protocol A: SJSA-1 growth inhibition (sulphorhodamine B); conditions: Homo sapiens
[2] = test system: SN40R2 cells (p53 mutated, MDM2 amplified osteosarcoma); assay: Protocol A: SN40R2 growth inhibition (sulphorhodamine B)
MDM2-p53 interaction = MDM2-p53 interaction (Homo sapiens (Human), UniProt Q00987); conditions: for inhibition at 0.001 µM: read-out: MDM2 % inhibition @0.0010
Sequence of MDM2-p53 interaction (Q00987 whole entry): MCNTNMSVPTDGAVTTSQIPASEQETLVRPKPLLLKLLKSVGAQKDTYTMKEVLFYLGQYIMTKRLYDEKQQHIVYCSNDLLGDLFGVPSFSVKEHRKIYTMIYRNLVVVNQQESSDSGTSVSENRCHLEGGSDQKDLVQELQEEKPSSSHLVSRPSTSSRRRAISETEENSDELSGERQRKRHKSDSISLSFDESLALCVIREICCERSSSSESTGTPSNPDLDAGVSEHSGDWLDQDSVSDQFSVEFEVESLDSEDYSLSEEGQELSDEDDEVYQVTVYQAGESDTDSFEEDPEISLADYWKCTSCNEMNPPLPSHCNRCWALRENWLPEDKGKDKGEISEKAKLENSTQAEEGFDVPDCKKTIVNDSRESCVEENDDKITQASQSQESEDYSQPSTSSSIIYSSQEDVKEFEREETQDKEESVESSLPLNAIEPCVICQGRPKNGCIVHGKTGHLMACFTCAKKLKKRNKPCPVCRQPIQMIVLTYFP

SJSA-1 cells = assay: Protocol B: SJSA-1 CellTiter-Glo luminescent cell viability assay
Molm-13 AML cell line [3] = assay: Combination protocol for measuring apoptosis (cleaved caspase-3), Molm-13; type: cell-based; conditions: SGI-110 10 nM daily for three days, isoindolinone 20 nM added on third day, 24 hrs, alone or combined, vehicle control 8.72
Experimental: (§1) Combination Protocol for Measuring Apoptosis
(§2) SGI-110 was added daily for three days. […] Percentage apoptosis was measured as percentage fluorescent cells with cleaved caspase-3 in a Guava easyCyte HT cytometer (Millipore). Cleaved caspase-3 staining was recorded in the FL1 channel, with unstained and DMSO control wells being used to set the gated stained and unstained cell populations.
(§3) Table 1 summarises the % apoptosis seen in Molm-13, MV-4-11, or ML-2 with the indicated compound treatments.

MV-4-11 AML cell line [4] = assay: Combination protocol for measuring apoptosis (cleaved caspase-3), MV-4-11; type: cell-based; conditions: SGI-110 10 nM daily for three days, isoindolinone 20 nM added on third day, 24 hrs, alone or combined, vehicle control 13.69
Experimental: as §1, §2, §3

ML-2 AML cell line [5] = assay: Combination protocol for measuring apoptosis (cleaved caspase-3), ML-2; type: cell-based; conditions: SGI-110 10 nM daily for three days, isoindolinone 100 nM added on third day, 24 hrs, alone or combined, vehicle control 3.32
Experimental: as §1, §2, §3

Molm-13 AML cell line [6] = assay: Combination protocol for proliferation in dose matrix (Alamar blue), Molm-13; type: cell-based
Experimental: (§4) Combination Protocol for Proliferation in Dose Matrix
(§5) AML cell lines were seeded onto 96-well tissue culture plates in triplicates at a concentration of 1×10^4 cells/well. […] At the end of compound treatment, 20 μl Alamar blue was added. After further 5-6 hr incubation at 37° C. the plates were read on a Spectramax Gemini reader (Molecular Devices; excitation 535 nm, emission 590 nm).

MV-4-11 AML cell line [7] = assay: Combination protocol for proliferation in dose matrix (Alamar blue), MV-4-11; type: cell-based
Experimental: as §4, §5

ML-2 AML cell line [8] = assay: Combination protocol for proliferation in dose matrix (Alamar blue), ML-2; type: cell-based
Experimental: as §4, §5

SN40R2 cells = assay: Protocol B: SN40R2 CellTiter-Glo luminescent cell viability assay; conditions: read-out: SN40R2 % inhibition at 10, Protocol B, SN40R2, at 10 μM
LINE-1 DNA methylation = LINE-1 DNA methylation in blood samples, repeat dose study; type: in vivo; conditions: monkeys; 3 mg/kg subcutaneously 3x weekly; until day 22; p<0.05 vs level prior to initial dosing
[9] = Tolerability of subcutaneous SGI-110 formulation in rabbits; type: in vivo
Experimental: (§6) The formulation was well-tolerated in the species tested. […] Rabbits tolerated the 5-day regimen well, up to a dose of 1.5 mg/kg/day, which is equivalent to […] in humans, and the weekly regimen up to a dose of 1.5 mg/kg/week for 3 weeks.

[10] = Tolerability of subcutaneous SGI-110 formulation in cynomolgus monkeys; type: in vivo
Experimental: as §6
(§7) Cynomolgus monkeys tolerated the weekly regimen well, up to a dose of 3.0 mg/kg/week for 3 weeks, which is equivalent to […]. Rats tolerated much higher doses: 30 mg/kg/day over 5 days; and 20 mg/kg twice weekly for 4 weeks.

[11] = Tolerability of subcutaneous SGI-110 formulation in rats; type: in vivo
Experimental: as §6, §7

[12] = in vivo, sc
[13] = Repeat dose pharmacokinetics in monkeys; conditions: monkey, in vivo, sc, 3 mg/kg subcutaneously 3x weekly, day 15
in vivo = conditions: monkey, 10 mg/kg
[14] = SJSA-1, read-out: SJSA-1 IC50 (μM) (Protocol A), SJSA-1, Protocol A
[15] = read-out: SN40R2 IC50 (μM) (Protocol A)
[16] = SGI-110 0 μM + isoindolinone 0.001 μM
[17] = SGI-110 0 μM + isoindolinone 0.003 μM
[18] = SGI-110 0 μM + isoindolinone 0.01 μM
[19] = SGI-110 0 μM + isoindolinone 0.03 μM
[20] = SGI-110 0 μM + isoindolinone 0.1 μM
[21] = SGI-110 0 μM + isoindolinone 0.3 μM
[22] = SGI-110 0 μM + isoindolinone 1 μM
[23] = SGI-110 0 μM + isoindolinone 3 μM
[24] = SGI-110 0 μM + isoindolinone 10 μM
[25] = SJSA-1, read-out: SJSA-1 IC50 (μM), Protocol A, SJSA-1
[26] = read-out: SJSA1 IC50, Protocol B, SJSA-1

CO[C@]1(c2ccc(Cl)cc2)c2c(F)cc(C(C)(O)C3CCN(C(=O)CO)CC3)cc2C(=O)N1Cc1ccc(Cl)cn1 (single isomer, unassigned) [Example 296]
IC50 [1, 14]: 0.11 µM
IC50 [2, 15]: 32 µM
MDM2 % at stated concentration (MDM2-p53 interaction): 62%@0.0010
IC50 (SJSA-1 cells; Homo sapiens, SJSA-1, read-out: SJSA1 IC50 (μM) (Protocol B), SJSA-1, Protocol B): 0.16 µM

CC(O)(c1cc(F)c2c(c1)C(=O)N(Cc1ccc(Cl)cn1)[C@@]2(OCC1(C#N)CC1)c1ccc(Cl)cc1)C1CCN(CCO)CC1 (single isomer, unassigned) [Example 420]
IC50 [1, 14]: 0.49 µM
IC50 [2, 15]: 17 µM
MDM2 % at stated concentration (MDM2-p53 interaction): 68%@0.0010

CC[C@@](O)(c1cc(F)c2c(c1)C(=O)N([C@H](c1ccc(Cl)cc1)[C@H](C)C(=O)O)[C@@]2(OC)c1ccc(Cl)cc1)C1CCOCC1 [(2S,3S)-3-(4-chlorophenyl)-3-[(1R)-1-(4-chlorophenyl)-7-fluoro-5-[(1S)-1-hydroxy-1-(oxan-4-yl)propyl]-1-methoxy-3-oxo-2,3-dihydro-1H-isoindol-2-yl]-2-methylpropanoic Acid]
% Apoptosis (Molm-13 AML cell line [3]): 32.48%
% Apoptosis (MV-4-11 AML cell line [4]): 30.83%
% Apoptosis (ML-2 AML cell line [5]): 15.15%
Percentage viability relative to DMSO control (Molm-13 AML cell line [6]; [16]): 98%
Percentage viability relative to DMSO control (Molm-13 AML cell line [6]; [17]): 99%
Percentage viability relative to DMSO control (Molm-13 AML cell line [6]; [18]): 84%
Percentage viability relative to DMSO control (Molm-13 AML cell line [6]; [19]): 52%
Percentage viability relative to DMSO control (Molm-13 AML cell line [6]; [20]): 37%
Percentage viability relative to DMSO control (Molm-13 AML cell line [6]; [21]): 27%
Percentage viability relative to DMSO control (Molm-13 AML cell line [6]; [22]): 24%
Percentage viability relative to DMSO control (Molm-13 AML cell line [6]; [23]): 22%
Percentage viability relative to DMSO control (Molm-13 AML cell line [6]; [24]): 15%
Percentage viability relative to DMSO control (MV-4-11 AML cell line [7]; [16]): 92%
Percentage viability relative to DMSO control (MV-4-11 AML cell line [7]; [17]): 82%
Percentage viability relative to DMSO control (MV-4-11 AML cell line [7]; [18]): 70%
Percentage viability relative to DMSO control (MV-4-11 AML cell line [7]; [19]): 54%
Percentage viability relative to DMSO control (MV-4-11 AML cell line [7]; [20]): 29%
Percentage viability relative to DMSO control (MV-4-11 AML cell line [7]; [21]): 16%
Percentage viability relative to DMSO control (MV-4-11 AML cell line [7]; [22]): 13%
Percentage viability relative to DMSO control (MV-4-11 AML cell line [7]; [23]): 13%
Percentage viability relative to DMSO control (MV-4-11 AML cell line [7]; [24]): 12%
Percentage viability relative to DMSO control (ML-2 AML cell line [8]; [16]): 100%
Percentage viability relative to DMSO control (ML-2 AML cell line [8]; [17]): 94%
Percentage viability relative to DMSO control (ML-2 AML cell line [8]; [18]): 78%
Percentage viability relative to DMSO control (ML-2 AML cell line [8]; [19]): 59%
Percentage viability relative to DMSO control (ML-2 AML cell line [8]; [20]): 47%
Percentage viability relative to DMSO control (ML-2 AML cell line [8]; [21]): 30%
Percentage viability relative to DMSO control (ML-2 AML cell line [8]; [22]): 16%
Percentage viability relative to DMSO control (ML-2 AML cell line [8]; [23]): 15%
Percentage viability relative to DMSO control (ML-2 AML cell line [8]; [24]): 9%

Cn1cc(C(O)(c2cc(F)c3c(c2)C(=O)N(Cc2ccc(C#N)cn2)[C@@]3(O[C@H]2CCOC2)c2ccc(Cl)cc2)C(F)(F)F)cn1 (stereo partly drawn) [Example 428, 6-{[(1R)-1-(4-chlorophenyl)-7-fluoro-3-oxo-1-[(3S)-oxolan-3-yloxy]-5-[2,2,2-trifluoro-1-hydroxy-1-(1-methyl-1H-pyrazol-4-yl)ethyl]-2,3-dihydro-1H-isoindol-2-yl]methyl}pyridine-3-carbonitrile]
IC50 [1, 25]: 0.11 µM
IC50 ([2]; read-out: SN40R2 IC50 (μM)): 22 µM
inhibition at 0.001 µM (MDM2-p53 interaction): 65%
IC50 (SJSA-1 cells; [26]): 0.19 µM

CCC(O)(c1cc(F)c2c(c1)C(=O)N(Cc1ccc(C#N)cn1)[C@@]2(OC1CC(O)C1)c1ccc(Cl)cc1)[C@H]1CC[C@H](O)CC1 (stereo partly drawn) [Example 518, 6-{[(1R)-1-(4-chlorophenyl)-7-fluoro-5-{1-hydroxy-1-[trans-4-hydroxycyclohexyl]propyl}-3-oxo-1-[cis-3-hydroxycyclobutoxy]-2,3-dihydro-1H-isoindol-2-yl]methyl}pyridine-3-carbonitrile]
IC50 [1, 25]: 0.058 µM
inhibition at 50 µM ([2]; read-out: SN40R2 % inhibition at 50): 46%
inhibition at 0.001 µM (MDM2-p53 interaction): 79%
IC50 (SJSA-1 cells; [26]): 0.065 µM
inhibition at 10 µM (SN40R2 cells): 10%

Nc1ncn([C@H]2C[C@H](OP(=O)(O)OC[C@H]3O[C@@H](n4cnc5c(=O)[nH]c(N)nc54)C[C@@H]3O)[C@@H](CO)O2)c(=O)n1 [SGI-110, 2′-deoxy-5-azacytidylyl-(3′5′)-2′-deoxy-guanosine]
LINE-1 DNA methylation (LINE-1 DNA methylation): Decreases in LINE-1 DNA methylation
tolerated dose, once daily subcutaneous dose for 5 days ([9]; SGI-110 sodium salt 100 mg/mL in glycol/glycerin/ethanol (65:25:10)): ≤ 1.5 mg/kg/day
tolerated dose, once weekly subcutaneous regimen ([9]; for 3 weeks): ≤ 1.5 mg/kg/week
tolerated dose, once weekly subcutaneous regimen ([10]; cynomolgus monkeys, for 3 weeks): ≤ 3.0 mg/kg/week
equivalent dose of tolerated weekly regimen dose ([10]; from cynomolgus monkeys 3.0 mg/kg/week): 36 mg/kg/week
tolerated dose, once daily subcutaneous regimen ([11]; over 5 days): 30 mg/kg/day
tolerated dose, twice weekly subcutaneous regimen ([11]; twice weekly for 4 weeks): 20 mg/kg
% Apoptosis (Molm-13 AML cell line [3]): 36.08%
% Apoptosis (MV-4-11 AML cell line [4]): 26.12%
% Apoptosis (ML-2 AML cell line [5]): 3.93%
myelosuppression and recovery [12]: less myelosuppression and faster recovery

Nc1ncn([C@H]2CC(OP(=O)(O)OC[C@H]3O[C@@H](n4cnc5c(=O)[nH]c(N)nc54)CC3O)[C@@H](CO)O2)c(=O)n1 (some centres unmarked) [compound 1-1]
AUC at 15 day [13]: 592 ng·h/mL
Cmax at 15 day [13]: 181 ng/mL
AUC (in vivo): 1470 ng·h/mL
Cmax (in vivo): 1130 ng/mL

Nc1ncn([C@H]2C[C@H](O)[C@@H](CO)O2)c(=O)n1 [decitabine, 5-aza-2′-deoxycytidine]
AUC at 15 day [13]: 99 ng·h/mL
Cmax at 15 day [13]: 28 ng/mL
AUC (in vivo): 340 ng·h/mL
Cmax (in vivo): 160 ng/mL
